For this assay, the target named is T1, Solute carrier family 15 member 1 (Homo sapiens) (UniProt P46059).
T1 sequence (whole entry): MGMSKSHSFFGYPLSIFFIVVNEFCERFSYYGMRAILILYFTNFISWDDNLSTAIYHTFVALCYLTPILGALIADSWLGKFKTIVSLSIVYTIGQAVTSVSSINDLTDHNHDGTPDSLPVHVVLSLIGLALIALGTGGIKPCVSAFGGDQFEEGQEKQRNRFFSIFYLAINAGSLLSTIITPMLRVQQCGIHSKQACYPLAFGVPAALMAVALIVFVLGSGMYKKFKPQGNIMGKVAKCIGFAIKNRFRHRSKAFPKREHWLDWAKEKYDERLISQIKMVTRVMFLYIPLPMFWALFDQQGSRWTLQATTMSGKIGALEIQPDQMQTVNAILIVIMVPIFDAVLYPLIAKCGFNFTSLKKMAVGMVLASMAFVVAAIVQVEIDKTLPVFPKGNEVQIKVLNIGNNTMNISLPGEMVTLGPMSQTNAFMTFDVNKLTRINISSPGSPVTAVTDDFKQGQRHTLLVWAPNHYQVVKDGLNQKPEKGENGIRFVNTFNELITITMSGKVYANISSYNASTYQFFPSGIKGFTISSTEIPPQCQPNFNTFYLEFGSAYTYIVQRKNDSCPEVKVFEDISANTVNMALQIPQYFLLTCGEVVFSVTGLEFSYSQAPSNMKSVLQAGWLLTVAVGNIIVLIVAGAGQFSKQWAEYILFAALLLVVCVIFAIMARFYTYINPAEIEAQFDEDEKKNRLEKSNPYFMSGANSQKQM
Put plainly: TP_TRANSPORTER: uptake in Xenopus laevis oocytes. The conditions noted are these: Oocyte. The format is functional, cell-based.
Consider `O=C(O)CO/N=C(\C(=O)N[C@@H]1C(=O)N2C(C(=O)O)=CCS[C@H]12)c1cscn1`, for which the Activity entry is “substrate [+]”. In the case of `CC1(C)S[C@@H]2[C@H](NC(=O)Cc3ccccc3)C(=O)N2[C@H]1C(=O)O`, the Activity entry was “substrate [+]”. The entry for `NCCC(=O)N[C@@H](Cc1c[nH]cn1)C(=O)O` is “substrate [+]”; for `CO/N=C(\C(=O)N[C@@H]1C(=O)N2C(C(=O)O)=CCS[C@H]12)c1csc(N)n1` it is “is not a substrate [-]”. With `C[C@@H](O)[C@H]1C(=O)N2C(C(=O)O)=C([C@H]3CCCO3)S[C@H]12`, the Activity entry is “is not a substrate [-]”. Take `O=C(O)CN1C[C@@H](c2cccs2)SC[C@H](N[C@@H](CCc2ccccc2)C(=O)O)C1=O`: the Activity entry is “substrate [+]”. As for `CCOC(=O)[C@H](CCc1ccccc1)N[C@@H](C)C(=O)N1CCC[C@H]1C(=O)O`, the Activity result was “substrate [+]”.

Regarding `C[C@H](N[C@@H](CCc1ccccc1)C(=O)O)C(=O)N1CCC[C@H]1C(=O)O`, the Activity entry is “substrate [+]”. On to `CC1=C(C(=O)O)N2C(=O)[C@@H](NC(=O)[C@H](N)c3ccc(O)cc3)[C@H]2SC1`, for which the Activity entry is “substrate [+]”.

Regarding `C=CC1=C(C(=O)O)N2C(=O)[C@@H](NC(=O)/C(=N\OCC(=O)O)c3csc(N)n3)[C@H]2SC1`, the Activity result is “substrate [+]”.

Turning to `NCCCC[C@H](N[C@@H](CCc1ccccc1)C(=O)O)C(=O)N1CCC[C@H]1C(=O)O`, the Activity entry was “is not a substrate [-]”. As for `C=CC1=C(C(=O)O)N2C(=O)[C@@H](NC(=O)/C(=N\O)c3csc(N)n3)[C@H]2SC1`, the Activity entry is “substrate [+]”. As to `Nc1nc(/C(=C/CC(=O)O)C(=O)N[C@@H]2C(=O)N3C(C(=O)O)=CCS[C@H]23)cs1`, the Activity entry was “substrate [+]”.

On to `CCOC(=O)[C@H](CCc1ccccc1)N[C@H]1CS[C@H](c2cccs2)CN(CC(=O)O)C1=O`, for which the Activity result is “substrate [+]”.

These data come from ChEMBL document CHEMBL2074235, “Transporter-mediated Drug Interactions” (Drug Metabol Pharmacokin, 2002).
